Values quoted from earlier work, collected in patent publication US8119653B2, “Belactosin derivatives as therapeutic agents/biological probes and their synthesis” (The Texas A&M University System, priority 2006, dated 2012).

Legend:
[1] = in vivo

In the case of `CCCCCCCCCCC[C@@H](C[C@@H]1OC(=O)[C@H]1CCCCCC)OC(=O)[C@H](CC(C)C)NC=O` [Orlistat], the “tumor growth in vivo” value (tumor growth) is listed as “can inhibit tumor growth”, the “effect on tumor cells in vitro” value (tumor cells) is listed as “cytotoxic and cytostatic” and the solubility is listed as “poor”. For the same compound, the bioavailability [1] was “poor”.
